Data: patent US4988681A, “Phosphinic acid derivatives” (Banyu Pharmaceutical Co., Ltd., priority 1988, dated 1991)
Where two headings read alike, the source gives them in different places.

How the values were obtained:
[1] = biological target: T1, porcine kidney dehydropeptidase I (Sus scrofa, UniProt P22412); assay: Inhibitory activity on porcine kidney dehydropeptidase I (DHP-I); type: biochemical
T1 construct: Frozen porcine kidney cortex was homogenized; from tissue; host or cells: porcine kidney cortex
T1 sequence (P22412 17-409): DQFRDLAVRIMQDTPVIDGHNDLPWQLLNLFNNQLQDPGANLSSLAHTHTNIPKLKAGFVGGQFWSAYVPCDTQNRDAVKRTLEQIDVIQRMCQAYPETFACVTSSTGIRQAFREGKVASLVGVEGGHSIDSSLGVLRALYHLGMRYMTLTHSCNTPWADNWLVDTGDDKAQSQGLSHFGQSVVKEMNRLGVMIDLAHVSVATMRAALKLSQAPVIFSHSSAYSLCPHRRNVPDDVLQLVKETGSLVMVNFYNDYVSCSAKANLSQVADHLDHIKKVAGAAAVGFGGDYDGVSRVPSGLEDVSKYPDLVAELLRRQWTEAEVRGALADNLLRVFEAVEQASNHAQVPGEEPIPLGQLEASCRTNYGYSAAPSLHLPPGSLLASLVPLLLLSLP
Method: (1) Inhibitory activity on porcine kidney dehydropeptidase I
(i) Purification of porcine dehydropeptidase I
Frozen porcine kidney cortex was homogenized. Butanol (1/4 volume) pre-cooled in a dry ice-acetone bath was added to the homogenate, and the mixture was stirred at 4° C. for 43 hours. The mixture was then dialyzed for one day and centrifuged at 3,000 g for 30 minutes. To the resulting supernatant was added ammonium sulfate. A precipitate at the salt concentration range between 50 and 75% was collected to give a crude enzyme preparation which was re-dissolved in a 50 mM MOPS buffer containing 0.5 M NaCl. The solution was charged on a cilastatin affinity column. Elution with a 50 mM MOPS buffer containing 0.5 M NaCN gave a purified enzyme preparation.
(ii) Measurement of inhibitory activity
The resulting enzyme preparation (3 mU) and an inhibitor were pre-incubatedat 37° C. for 3 hours in 2.7 ml of a 50 mM MOPS buffer (pH 7.4), and then 2.475 ml of the mixture was transferred into a cuvette. As a substrate, 25 microliters of a 5 mM glycyldehydrophenylalanine solution in a 50 mM MOPS buffer (pH 7.4) was added to start an enzymic reaction. The reaction was carried out at 37° C. in a spectrophotometer fitted with a constant-emperature device, and a decrease of the absorbance at 275 nm during a period of 5 minutes was measured. […] An IC50 value was calculated from the percent inhibition data.
One unit (U) is defined as the amount of the enzyme which hydrolyzes 1 micromole of the substrate (glycyldehydrophenylalanine) per minute at a substrate concentration of 0.05 mM at 37° C. in a 50 mM MOPS buffer (pH 7.4).

[2] = Pharmacokinetic evaluation: plasma concentration in rats; type: in vivo, Male SD rats; settings: plasma, rat; for AUC: trapezoidal rule; for concentration at 0.5 h: 1/2 h; for concentration at 0.25 h: 1/4 h; for concentration at 5 min: 1/12 h
Method: (4) Pharmacokinetic evaluations
Male SD rats ([…]) were divided into groups each consisting of three animals. […] Furthermore, cilastatin was intravenously administered to a 14th group as a control group.
Plasma samples were taken periodically from the carotid artery through a cannula inserted into it at the points of 1/12, 1/4, 1/2, 1, 2, 4, 6, 8 and 24 hours after the administration.
The area under the curve (AUC) of the plasma concentration was determined according to the trapezoidal rule.

[3] = substrate glycyldehydrophenylalanine, pH 7.4, 37° C., 3 h pre-incubation, read-out: Concentration producing 50% inhibition (IC50)
[4] = iv 10 mg/kg (cilastatin dose not given)
[5] = iv 10 mg/kg (cilastatin dose not given), N.D.: below the detection limit
[6] = iv 10 mg/kg, N.D.: below the detection limit

Q: Which IC50 [1, 3] does the source give for `CCCCP(=O)(O)C/C(=C\C1CCCCC1)C(=O)O` [Compound No. 1, (Z)-2-(butylhydroxyphosphinoyl)methyl-3-cyclohexylpropenoic acid] here?
A: 38 nM

Q: Which AUC [2, 4] does the source give for `CC1(C)CC1P(=O)(O)C/C(=C\C1CCCCC1)C(=O)O` (stereo not drawn) [Compound No. 5, (Z)-3-cyclohexyl-2-(2,2-dimethylcyclopropylhydroxyphosphinoyl)methylpropenoic acid] here?
A: 88200 ng·h/mL

Q: What about the AUC ([2]; po 10 mg/kg) of the same compound?
A: 22500 ng·h/mL

Q: What about the concentration at 0.5 h [2, 4] of the same compound?
A: 36200 ng/mL

Q: And the concentration at 0.25 h [2, 4]?
A: 49400 ng/mL

Q: What about the concentration at 5 min [2, 4] of the same compound?
A: 51900 ng/mL

Q: And the concentration at 1 h [2, 5]?
A: 24400 ng/mL

Q: What about the concentration at 2 h ([2]; iv 10 mg/kg) of the same compound?
A: 11900 ng/mL

Q: And the concentration at 4 h ([2]; iv 10 mg/kg)?
A: 4700 ng/mL

Q: And the concentration at 6 h [2, 6]?
A: 1700 ng/mL

Q: What about the concentration at 8 h ([2]; iv 10 mg/kg) of the same compound?
A: 900 ng/mL

Q: And the concentration at 24 h ([2]; iv 10 mg/kg, 24 h, N.D.: below the detection limit)?
A: 100 ng/mL

Q: What about the concentration at 0.5 h ([2]; po 10 mg/kg) of the same compound?
A: 6400 ng/mL

Q: And the concentration at 0.25 h ([2]; po 10 mg/kg)?
A: 4700 ng/mL

Q: And the concentration at 5 min ([2]; po 10 mg/kg)?
A: 2500 ng/mL

Q: What about the concentration at 1 h ([2]; po 10 mg/kg) of the same compound?
A: 5300 ng/mL

Q: What about the concentration at 2 h ([2]; po 10 mg/kg) of the same compound?
A: 3400 ng/mL

Q: And the concentration at 4 h ([2]; po 10 mg/kg)?
A: 2400 ng/mL

Q: And the concentration at 6 h ([2]; po 10 mg/kg)?
A: 1100 ng/mL

Q: And the concentration at 8 h ([2]; po 10 mg/kg, N.D.: below the detection limit)?
A: 300 ng/mL

Q: And the IC50 [1, 3]?
A: 8.2 nM

Q: What does the source list for `CC(C)CP(=O)(O)C/C(=C\C1CC1)C(=O)O` [Compound No. 10, (Z)-3-cyclopropyl-2-(hydroxyisobutylphosphinoyl)methylpropenoic acid]?
A: AUC [2, 4]: 40600 ng·h/mL; AUC ([2]; po 10 mg/kg): 3900 ng·h/mL; concentration at 0.5 h [2, 4]: 21700 ng/mL; concentration at 0.25 h [2, 4]: 26500 ng/mL; concentration at 5 min [2, 4]: 40800 ng/mL; concentration at 1 h [2, 5]: 12800 ng/mL; concentration at 2 h ([2]; iv 10 mg/kg): 5200 ng/mL; concentration at 4 h ([2]; iv 10 mg/kg): 1100 ng/mL; concentration at 6 h [2, 6]: 200 ng/mL; concentration at 8 h ([2]; iv 10 mg/kg): 200 ng/mL; concentration at 0.5 h ([2]; po 10 mg/kg): 1400 ng/mL; concentration at 0.25 h ([2]; po 10 mg/kg): 1100 ng/mL; concentration at 5 min ([2]; po 10 mg/kg): 500 ng/mL; concentration at 1 h ([2]; po 10 mg/kg): 1200 ng/mL; concentration at 2 h ([2]; po 10 mg/kg): 800 ng/mL; concentration at 4 h ([2]; po 10 mg/kg): 300 ng/mL; concentration at 6 h ([2]; po 10 mg/kg): 200 ng/mL; IC50 [1, 3]: 14 nM

Q: For `CC(C)CP(=O)(O)C/C(=C\CCCC(=O)O)C(=O)O` [Compound No. 14, (Z)-2-(hydroxyisobutylphosphinoyl)methyl-2-heptenedioic acid], which AUC [2, 4] is on record?
A: 9300 ng·h/mL

Q: And the concentration at 0.5 h [2, 4]?
A: 4600 ng/mL

Q: And the concentration at 0.25 h [2, 4]?
A: 11300 ng/mL

Q: What about the concentration at 5 min [2, 4] of the same compound?
A: 28000 ng/mL

Q: What about the concentration at 1 h [2, 5] of the same compound?
A: 1400 ng/mL

Q: What about the concentration at 2 h ([2]; iv 10 mg/kg) of the same compound?
A: 300 ng/mL

Q: What about the concentration at 4 h ([2]; iv 10 mg/kg) of the same compound?
A: 100 ng/mL

Q: What about the IC50 [1, 3] of the same compound?
A: 11 nM

Q: For `CC(C)P(=O)(O)C/C(=C\C1CCCCC1)C(=O)O` [compound 3, (Z)-3-cyclohexyl-2-(hydroxyisopropylphosphinoyl)methylpropenoic acid], which IC50 [1, 3] is on record?
A: 42 nM

Q: For `CCCCCCCCCCP(=O)(O)C/C(=C\C1CCCCC1)C(=O)O` [compound 4, (Z)-3-cyclohexyl-2-(decylhydroxyphosphinoyl)methylpropenoic acid], which IC50 [1, 3] is on record?
A: 68 nM

Q: With `CCCCC/C=C(\CP(=O)(O)CC(C)C)C(=O)O` [compound 6, (Z)-2-(hydroxyisobutylphosphinoyl)methyl-2-octenoic acid] as the compound, how does the IC50 [1, 3] read?
A: 46 nM

Q: With `CCCCCCCCC/C=C(\CP(=O)(O)CC(C)C)C(=O)O` [compound 7, (Z)-2-(hydroxyisobutylphosphinoyl)methyl-2-dodecenoic acid] as the compound, how does the IC50 [1, 3] read?
A: 27 nM

Q: For `CC(C)/C=C(\CP(=O)(O)CC(C)C)C(=O)O` [compound 8, (Z)-2-(hydroxyisobutylphosphinoyl)methyl-4-methyl-2-pentenoic acid], which IC50 [1, 3] is on record?
A: 16 nM

Q: With `CC(C)C/C=C(\CP(=O)(O)CC(C)C)C(=O)O` [compound 9, (Z)-2-(hydroxyisobutylphosphinoyl)methyl-5-methyl-2-hexenoic acid] as the compound, how does the IC50 [1, 3] read?
A: 15 nM

Q: With `CC(C)CP(=O)(O)C/C(=C\CCc1ccccc1)C(=O)O` [compound 11, (Z)-2-(hydroxyisobutylphosphinoyl)methyl-5-phenyl-2-pentenoic acid] as the compound, how does the IC50 [1, 3] read?
A: 57 nM

Q: Which IC50 [1, 3] does the source give for `CC(C)CP(=O)(O)C/C(=C\CCCCl)C(=O)O` [compound 12, (Z)-6-chloro-2-(hydroxyisobutylphosphinoyl)methyl-2-hexenoic acid] here?
A: 51 nM

Q: For `CC(C)CP(=O)(O)C/C(=C\CCCCCCl)C(=O)O` [compound 13, (Z)-8-chloro-2-(hydroxyisobutylphosphinoyl)methyl-2-octenoic acid], which IC50 [1, 3] is on record?
A: 44 nM

Q: With `CC1(C)CC1P(=O)(O)C/C(=C\C1CC1)C(=O)O` (stereo not drawn) [compound 15, (Z)-3-cyclopropyl-2-(2,2-dimethylcyclopropylhydroxyphosphinoyl)methylpropenoic acid] as the compound, how does the IC50 [1, 3] read?
A: 6.3 nM

Q: For `O=C(O)/C(=C/C1CC1)CP(=O)(O)CC1CCCCC1` [compound 16, (Z)-2-(cyclohexylmethylhydroxyphosphinoyl)methyl-3-cyclopropylpropenoic acid], which IC50 [1, 3] is on record?
A: 41 nM

Q: With `CC(C)CP(=O)(O)C/C(=C\CCCSc1ccccc1)C(=O)O` [compound 18, (Z)-2-(hydroxyisobutylphosphinoyl)methyl-6-phenylthio-2-hexenoic acid] as the compound, how does the IC50 [1, 3] read?
A: 21 nM

Q: For `CC(C)CP(=O)(O)C/C(=C\CCCSc1c[nH]nn1)C(=O)O` [compound 19, (Z)-2-(hydroxyisobutylphosphinoyl)methyl-6-(1,2,3-triazol-4-yl)thio-2-hexenoic acid], which IC50 [1, 3] is on record?
A: 25 nM

Q: Which IC50 [1, 3] does the source give for `CC(C)CP(=O)(O)C/C(=C\CCCCCSCC(=O)O)C(=O)O` [compound 20, (Z)-8-carboxymethylthio-2-(hydroxyisobutylphosphinoyl)methyl-2-octenoic acid] here?
A: 22 nM

Q: With `COC(=O)CSCCCCC/C=C(\CP(=O)(O)CC(C)C)C(=O)O` [compound 21, (Z)-2-(hydroxyisobutylphosphinoyl)methyl-8-methoxycarbonylmethylthio-2-octenoic acid] as the compound, how does the IC50 [1, 3] read?
A: 31 nM

Q: Which IC50 [1, 3] does the source give for `CC(C)CP(=O)(O)C/C(=C\CCCSc1ncccc1O)C(=O)O` [compound 22, (Z)-6-(3-hydroxy-2-pyridyl)thio-2-(hydroxyisobutylphosphinoyl)methyl-2-hexenoic acid] here?
A: 23 nM

Q: With `CC(C)CP(=O)(O)C/C(=C\CCCSc1nccn1C)C(=O)O` [compound 24, (Z)-2-(hydroxyisobutylphosphinoyl)methyl-6-(1-methylimidazol-2-yl)thio-2-hexenoic acid] as the compound, how does the IC50 [1, 3] read?
A: 48 nM

Q: Which IC50 [1, 3] does the source give for `CC(C)CP(=O)(O)C/C(=C\CCCCCSc1ncccc1O)C(=O)O` [compound 25, (Z)-8-(3-hydroxy-2-pyridyl)thio-2-(hydroxyisobutylphosphinoyl)methyl-2-octenoic acid] here?
A: 19 nM

Q: Which IC50 [1, 3] does the source give for `CCCCP(=O)(O)CC(CC1CCCCC1)C(=O)O` (stereo not drawn) [compound 26, 2-(butylhydroxyphosphinoyl)methyl-3-cyclohexylpropionic acid] here?
A: 28 nM

Q: For `CC(C)CP(=O)(O)C/C(=C\c1ccccc1)C(=O)O` [compound 29, (Z)-2-(hydroxyisobutylphosphinoyl)methyl-3-phenylpropenoic acid], which IC50 [1, 3] is on record?
A: 60 nM

Q: Which IC50 [1] does the source give for `C/C=C(\CP(=O)(O)CC(C)C)C(=O)O` [compound 30, (Z)-2-(hydroxyisobutylphosphinoyl)methyl-2-butenoic acid] here?
A: 75 nM

Q: Which IC50 [1, 3] does the source give for `CC(C)CP(=O)(O)C/C(=C\CCCSCCO)C(=O)O` [compound 31, (Z)-6-(2-hydroxyethyl)thio-2-(hydroxyisobutylphosphinoyl)methyl-2-hexenoic acid] here?
A: 64 nM
